Results on 26 compounds are retold here after ChEMBL document CHEMBL1139426, “Design and synthesis of a metabolically stable and potent antitussive agent, a novel delta opioid receptor antagonist, TRK-851” (Bioorg Med Chem, 2008).

Molecules are shown by their SMILES. The source made the active and inactive calls. The calls are words filed in the database; no cut-off is given here.

Data set [1] relates to Rattus norvegicus. The experiment in a line: Antitussive activity in sc dosed Sprague-Dawley rat assessed as reduction of capsaicin-induced coughing for 3 mins administered 30 mins before capsaicin challenge relative to control. It is filed as functional.
The nature of data set [2]: Metabolic stability in human liver microsomes assessed as time course of compound elimination at 1 uM by HPLC. Format: ADME, Microsome. Conditions: read-out: Ke (converted).
The test system of data set [3] is Rattus norvegicus. The experiment in a line: Antitussive activity in ip dosed Sprague-Dawley rat assessed as reduction of capsaicin-induced coughing for 3 mins administered 30 mins before capsaicin challenge relative to control. It is filed as functional.
Data set [4] deals with Rattus norvegicus. The experiment in a line: Antitussive activity in po dosed rat assessed as reduction of coughing. Format: functional.
Data set [5] has as its system Rattus norvegicus. The experiment in a line: Antitussive activity in po dosed Sprague-Dawley rat assessed as inhibition of capsaicin-induced coughing for 3 mins administered 60 mins before capsaicin challenge relative to control. It is filed as functional, organism-based.
The target in data set [6] is Delta-type opioid receptor (Mus musculus, UniProt P32300). The experiment in a line: Antagonist activity at delta opioid receptor in ddy mouse vas deferens assessed as inhibition of DPDPE-induced electrically-stimulated contraction. It is filed as functional, tissue-based.
Delta-type opioid receptor, sequence (P32300 whole entry): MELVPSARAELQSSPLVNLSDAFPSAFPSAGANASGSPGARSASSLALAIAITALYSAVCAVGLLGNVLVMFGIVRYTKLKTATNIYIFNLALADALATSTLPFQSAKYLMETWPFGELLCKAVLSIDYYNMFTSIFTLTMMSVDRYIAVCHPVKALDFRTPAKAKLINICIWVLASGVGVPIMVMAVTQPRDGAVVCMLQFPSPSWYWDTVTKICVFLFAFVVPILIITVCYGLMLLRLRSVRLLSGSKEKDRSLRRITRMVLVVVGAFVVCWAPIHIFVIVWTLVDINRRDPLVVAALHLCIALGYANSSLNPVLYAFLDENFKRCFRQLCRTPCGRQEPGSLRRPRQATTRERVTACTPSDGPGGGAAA
Data set [7] concerns the target Kappa-type opioid receptor (Mus musculus, UniProt P33534). The experiment in a line: Antagonist activity at kappa opioid receptor in ddy mouse vas deferens assessed as inhibition of U-50,488H-induced electrically-stimulated contraction. It is filed as functional, tissue-based. Conditions: read-out: pA2 (converted).
Data set [8] has as its target Delta-type opioid receptor (Mus musculus) (UniProt P32300). The experiment in a line: Antagonist activity at delta opioid receptor in ddy mouse vas deferens assessed as inhibition of DPDPE-induced electrically-stimulated contraction at 10 nM pretreated for 20 mins. It is filed as functional, tissue-based.
The target of data set [9] is Kappa-type opioid receptor (Mus musculus) (UniProt P33534). The experiment in a line: Antagonist activity at kappa opioid receptor in ddy mouse vas deferens assessed as inhibition of U-50,488H-induced electrically-stimulated contraction at 10 nM pretreated for 20 mins. It is filed as functional, tissue-based.
Kappa-type opioid receptor (Mus musculus), sequence (P33534 whole entry): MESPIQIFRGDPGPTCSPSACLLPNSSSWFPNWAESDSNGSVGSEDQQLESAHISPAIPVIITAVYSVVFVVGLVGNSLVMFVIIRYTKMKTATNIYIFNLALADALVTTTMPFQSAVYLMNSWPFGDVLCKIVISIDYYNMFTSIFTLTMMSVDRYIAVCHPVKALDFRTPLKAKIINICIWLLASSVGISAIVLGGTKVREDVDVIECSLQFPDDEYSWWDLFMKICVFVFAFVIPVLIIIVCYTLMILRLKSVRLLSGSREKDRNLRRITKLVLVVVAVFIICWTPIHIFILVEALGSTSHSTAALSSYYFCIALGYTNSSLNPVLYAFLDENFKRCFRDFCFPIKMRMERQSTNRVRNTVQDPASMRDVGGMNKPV
The target in data set [10] is Mu-type opioid receptor (Mus musculus) (UniProt P42866). The experiment in a line: Antagonist activity at mu opioid receptor in ddy mouse vas deferens assessed as inhibition of morphine-induced electrically-stimulated contraction at 10 nM pretreated for 20 mins. Format: functional, tissue-based.
Mu-type opioid receptor (Mus musculus), sequence (P42866 whole entry): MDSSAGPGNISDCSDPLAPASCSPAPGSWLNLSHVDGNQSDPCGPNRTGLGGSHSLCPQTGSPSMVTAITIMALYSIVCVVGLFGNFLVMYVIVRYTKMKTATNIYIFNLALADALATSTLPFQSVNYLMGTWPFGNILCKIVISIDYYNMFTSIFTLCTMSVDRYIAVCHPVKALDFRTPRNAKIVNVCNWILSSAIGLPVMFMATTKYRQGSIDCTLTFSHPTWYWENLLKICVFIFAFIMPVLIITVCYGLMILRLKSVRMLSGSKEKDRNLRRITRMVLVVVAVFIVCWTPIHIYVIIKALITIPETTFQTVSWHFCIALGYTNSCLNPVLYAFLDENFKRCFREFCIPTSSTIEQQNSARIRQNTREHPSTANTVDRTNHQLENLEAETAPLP
The species entered for data set [11] is Mus musculus. The experiment in a line: Selectivity for delta opioid receptor over mu opioid receptor in ddy mouse vas deferens. Format: tissue-based.
For data set [12], the species on record is Mus musculus. The experiment in a line: Selectivity for delta opioid receptor over kappa opioid receptor in ddy mouse vas deferens. Format: tissue-based.
The target in data set [13] is Delta-type opioid receptor (Mus musculus) (UniProt P32300). The experiment in a line: Antagonist activity at delta opioid receptor in ddy mouse vas deferens assessed as ratio of DPDPE concentration that elicit equal response in absence and presence of compound. It is filed as functional.
Delta-type opioid receptor (Mus musculus), sequence (P32300 whole entry): as the sequence (P32300 whole entry) above
In data set [14] the target is Kappa-type opioid receptor (Mus musculus) (UniProt P33534). The experiment in a line: Antagonist activity at kappa opioid receptor in ddy mouse vas deferens assessed as ratio of U-50,488H concentration that elicit equal response in absence and presence of compound. It is filed as functional.
In data set [15] the target is Mu-type opioid receptor (Mus musculus) (UniProt P42866). The experiment in a line: Antagonist activity at mu opioid receptor in ddy mouse vas deferens assessed as ratio of morphine concentration that elicit equal response in absence and presence of compound. It is filed as functional.

Kappa-type opioid receptor, sequence (P33534 whole entry): as the sequence (P33534 whole entry) above

Usually ED50 stands for the midpoint of the dose-response relation. Turning to `Oc1ccc2c3c1O[C@H]1c4c(c5ccc(Cl)c6c5n4CCC6)C[C@@]4(O)[C@@H](C2)N(CC2CC2)CC[C@]314`, in the data set with Rattus norvegicus [1], the median effective dose (ED50) was found to be 13.8 µg/kg. Moreover, in [2], the k el at 1 µM is 0.000483 s⁻¹.
Consider `COc1ccc2c3c1O[C@H]1c4c(c5c(OC)ccc6c5n4CCC6)C[C@@]4(O)[C@@H](C2)N(CC2CC2)CC[C@]314`, for which the k el at 1 µM in [2] is 0.00333 s⁻¹.
`COc1ccc2c3c1O[C@H]1c4c(c5cc(F)cc6c5n4CCC6)C[C@@]4(O)C(C2)N(CC2CC2)CC[C@]314`: the 50% effective dose (ED50) in the data set with Rattus norvegicus [3] was found to be 4.73 µg/kg. For the same compound, the k el at 1 µM in [2] was 0.00647 s⁻¹.
Take `Oc1ccc2c3c1O[C@H]1c4c(c5cc(C(F)(F)F)cc6c5n4CCC6)C[C@@]4(O)[C@@H](C2)N(CC2CC2)CC[C@]314`: the median effective dose (ED50) with Rattus norvegicus [1] was more than 1000 µg/kg. For the same compound, the k el at 1 µM in [2] is 0.00027 s⁻¹.
Consider `COc1ccc2c3c1O[C@H]1c4c(c5cccc6c5n4CCO6)C[C@@]4(O)[C@@H](C2)N(CC2CC2)CC[C@]314`, for which the k el at 1 µM in data set [2] is 0.00105 s⁻¹.
On to `Oc1ccc2c3c1O[C@H]1c4c(c5cccc6c5n4CCC6)C[C@@]4(O)[C@@H](C2)N(CC2CC2)CC[C@]314`, for which the ED50 with Rattus norvegicus [1] turned out to be 0.2 µg/kg. In addition, the k el at 1 µM in data set [2] was 0.000415 s⁻¹.
For `Oc1ccc2c3c1O[C@H]1c4c(c5cccc6c5n4CCO6)C[C@@]4(O)[C@@H](C2)N(CC2CC2)CC[C@]314`, the 50% effective dose (ED50) in the data set with Rattus norvegicus [1] stood at 14 µg/kg. In data set [2], the k el at 1 µM is 0.000557 s⁻¹.
As for `Oc1ccc2c3c1O[C@H]1c4[nH]c5ccccc5c4C[C@@]4(O)[C@@H](C2)N(CC2CC2)CC[C@]314` [NALTRINDOLE], the median effective dose (ED50) in the data set with Rattus norvegicus [3] was determined as 104 µg/kg.
Regarding `Oc1ccc2c3c1O[C@H]1c4c(c5cc(Cl)cc6c5n4CCC6)C[C@@]4(O)[C@@H](C2)N(CC2CC2)CC[C@]314`, the median effective dose (ED50) in the data set with Rattus norvegicus [3] was 78.4 µg/kg. Also, in data set [2], the k el at 1 µM is 0.000295 s⁻¹.
For `Oc1ccc2c3c1O[C@H]1c4c(c5c(Br)ccc6c5n4CCC6)C[C@@]4(O)[C@@H](C2)N(CC2CC2)CC[C@]314`, the median effective dose (ED50) with Rattus norvegicus [1] is 94.6 µg/kg. The k el at 1 µM in data set [2] was 0.000618 s⁻¹.
The matching figures for `COc1ccc2c3c1O[C@H]1c4c(c5cccc6c5n4CCC6(C)C)C[C@@]4(O)[C@@H](C2)N(CC2CC2)CC[C@]314`: 12.8 µg/kg and 0.00103 s⁻¹.
Regarding `Cc1ccc2c3c1c1c(n3CCC2)[C@@H]2Oc3c(O)ccc4c3[C@@]23CCN(CC2CC2)[C@H](C4)[C@]3(O)C1`, in [2], the k el at 1 µM was 0.000565 s⁻¹.
In the case of `COc1ccc2c3c1O[C@H]1c4c(c5cccc6c5n4CCC6)C[C@@]4(O)[C@@H](C2)N(CC2CC2)CC[C@]314.CS(=O)(=O)O`, the 50% effective dose (ED50) was determined as 2.07 µg/kg in the data set with Rattus norvegicus [3] and 6.4 µg/kg in the data set with Rattus norvegicus [4]. The k el at 1 µM in [2] was 0.00568 s⁻¹.
Take `Oc1ccc2c3c1O[C@H]1c4c(c5cc(Br)cc6c5n4CCC6)C[C@@]4(O)[C@@H](C2)N(CC2CC2)CC[C@]314`: the ED50 in the data set on Rattus norvegicus [1] is 5.05 µg/kg. The k el at 1 µM in data set [2] is 0.000252 s⁻¹.
`COc1ccc2c3c1O[C@H]1c4c(c5c(C)ccc6c5n4CCC6)C[C@@]4(O)[C@@H](C2)N(CC2CC2)CC[C@]314`: the k el at 1 µM in [2] is 0.00595 s⁻¹.
As for `COc1ccc2c3c1c1c(n3CCC2)[C@@H]2Oc3c(O)ccc4c3[C@@]23CCN(CC2CC2)[C@H](C4)[C@]3(O)C1`, in the data set on Rattus norvegicus [1], the 50% effective dose (ED50) is 8.67 µg/kg. Moreover, the k el at 1 µM in [2] was 0.000475 s⁻¹.
Consider `COc1ccc2c3c1O[C@H]1c4c(c5c(C(F)(F)F)ccc6c5n4CCC6)C[C@@]4(O)[C@@H](C2)N(CC2CC2)CC[C@]314`, for which the k el at 1 µM in data set [2] was 0.00228 s⁻¹.
As to `Oc1ccc2c3c1O[C@H]1c4c(c5ccc(Br)c6c5n4CCC6)C[C@@]4(O)[C@@H](C2)N(CC2CC2)CC[C@]314`, the ED50 in the data set on Rattus norvegicus [1] was determined as 27.4 µg/kg. The k el at 1 µM in data set [2] is 0.000363 s⁻¹.
In the case of `CC1(C)CCn2c3c(c4cccc1c42)C[C@@]1(O)[C@H]2Cc4ccc(O)c5c4[C@@]1(CCN2CC1CC1)[C@H]3O5`, in [2], the k el at 1 µM is 0.00126 s⁻¹.
As to `Oc1ccc2c3c1O[C@H]1c4c(c5c(Cl)ccc6c5n4CCC6)C[C@@]4(O)[C@@H](C2)N(CC2CC2)CC[C@]314`, the ED50 with Rattus norvegicus [1] stood at 3.5 µg/kg. The k el at 1 µM in data set [2] was 0.00045 s⁻¹.
Turning to `COc1ccc2c3c1O[C@H]1c4c(c5cc(Br)cc6c5n4CCC6)C[C@@]4(O)[C@@H](C2)N(CC2CC2)CC[C@]314`, in data set [2], the k el at 1 µM was 0.0044 s⁻¹.
Take `Oc1ccc2c3c1O[C@H]1c4c(c5c(C(F)(F)F)ccc6c5n4CCC6)C[C@@]4(O)[C@@H](C2)N(CC2CC2)CC[C@]314`: the ED50 in the data set on Rattus norvegicus [1] worked out at 0.355 µg/kg. For the same compound, in [2], the k el at 1 µM was 0.000278 s⁻¹.
`Oc1ccc2c3c1O[C@H]1c4c(c5cc(OC(F)(F)F)cc6c5n4CCC6)C[C@@]4(O)[C@@H](C2)N(CC2CC2)CC[C@]314`: the ED50 with Rattus norvegicus [1] was more than 1000 µg/kg. Also, in [2], the k el at 1 µM is 0.000152 s⁻¹.
On the same counts, the results for `COc1cc2c3c(c1)c1c(n3CCC2)[C@@H]2Oc3c(O)ccc4c3[C@@]23CCN(CC2CC2)[C@H](C4)[C@]3(O)C1` are 2 µg/kg and 0.000552 s⁻¹.
The matching figures for `COc1ccc2c3c(n4c2c1CCC4)[C@@H]1Oc2c(O)ccc4c2[C@@]12CCN(CC1CC1)[C@H](C4)[C@]2(O)C3`: 54.2 µg/kg and 0.000437 s⁻¹.
The term IC50 denotes the midpoint of a concentration-inhibition curve. As to `Oc1ccc2c3c1O[C@H]1c4c(c5cc(F)cc6c5n4CCC6)C[C@@]4(O)[C@@H](C2)N(CC2CC2)CC[C@]314`, in the data set with Rattus norvegicus [1], the ED50 was 1.7 µg/kg. The Activity entry in the data set on Rattus norvegicus [5] was “Dose-dependent effect”. Moreover, the k el at 1 µM in data set [2] is 0.00029 s⁻¹. Moreover, the concentration for half-maximal inhibition (IC50) in [6] came out at 8800 nM. Besides, the Kb is 1.45 nM in [6] (read-out: pA2 (converted)) and 331 nM in data set [7]. Also, the result in data set [8], in [9] and in [10] was inactive. For the same compound, the Selectivity ratio in the data set filed under Mus musculus [11] and in the data set listed under Mus musculus [12] was more than 100 in each case. For the same compound, the Ratio stood at 7.87 in [13], 1.03 in [14] and 0.98 in data set [15].
